Test [1] deals with CL-1 cells. The experiment in a line: Differentiation of CL-1 cells into adipocytes, Oil red O-positive lipid droplets. Format: cell-based, mouse. The protocol:
Influences of 1,25-dihydroxyvitamin D3 known to inhibit conversion of a adipocyte precursor cell line 3T3-L1 into adipocytes (Comp. Biochem. Physiol. 96A, (1990)) on differentiation of CL-1 cells into adipocytes were examined. CL-1 cells were cultured on a 4-well chamber slide (Nunc) at a cell density of 2500 cells/cm^2 to confluent, after which 1,25-dihydroxyvitamin D3 was added at a final concentration of […] for each medium change.

Test [2] relates to CL-1 cells. The test is described as follows: Calcification of CL-1 cells, Ca deposition per dish (O-CPC method). Format: cell-based, mouse. The conditions noted are these: 10^−9, 10^−8 or 10^−7 M; vs solvent control, on and after 2 weeks post confluent. The protocol:
CL-1 cells were cultured on a 60-mm dish (CORNING) at a cell density of 2000 cells/cm^2. When cells reached to confluent, 1,25-dihydroxyvitamin D3 was added at a final concentration of 10^−9, 10^−8 or 10^−7 M, then samples were weekly collected for 4 weeks post confluent to determine the Ca content with time. Namely, cell layers were washed with Ca-Mg-free PBS three times, then harvested in a crucible with a cell scraper (Nunc), then dried in an incubator at 60° C., then burned overnight in an oven at 800° C., and the remaining ash was dissolved in 500 μl of 6N hydrochloric acid (Wako Pure Chemical Industries). The Ca content in this solution was determined by the O-CPC method (Ca test Wako, available from Wako Pure Chemical Industries) to calculate the Ca deposition per dish.

Test [3] concerns CL-1 cells. The test is described as follows: Stainability of CL-1 cells with Alcian blue (pH 1.0), cartilage-inducing ability. Format: cell-based, mouse. The conditions noted are these: for Alcian blue (pH 1.0)-positive nodules: morphologically, compared with the medium alone. The method, then:
In order to examine whether or not CL-1 cells can be used as an in vitro screening system for cartilage-inducing materials, effects of hTGF-β, known to have cartilage-inducing ability (J. Biol. Chem. 261, 5693 (1986)) on the stainability of CL-1 cells with Alcian blue (pH 1.0) were examined. Namely, CL-1 cells were cultured on a 24-well plate (CORNING) at a cell density of 2500 cells/cm^2 to confluent, at which human transforming growth factor-β1 (hTGF-β1; AUSTRAL Biologicals) was added at a concentration of 0.1, 1.0 or 10 ng/ml, and cultivation took place for 3 weeks after the start of the addition with the medium being changed every 2 or 3 days. The addition of hTGF-β1 was performed for each medium change. After completion of cultivation, cells were fixed in 4% paraformaldehyde (Wako Pure Chemical Industries) and washed with water, then treated with 0.1 N hydrochloric acid (Wako Pure Chemical Industries) for 3 minutes, and then stained overnight with an Alcian blue (pH 1.0) solution (concentration: 1%). After completion of staining, samples were washed with distilled water three times and air-dried. The dried samples were immersed in 300 μl of a 6 M guanidine hydrochloride solution (Wako Pure Chemical Industries) for 3 hours and stirred, after which the absorbance of the guanidine hydrochloride solution at 620 nm was determined.

A further test has as its system ATDC-5 cells. The test is described as follows: Stainability of ATDC-5 cells with Alcian blue (pH 1.0). Format: cell-based. The conditions noted are these: 10 μg/ml insulin and 0.1 to 10 ng/ml hTGF-β1, 7 days post confluent. The protocol: ATDC-5 cells known to differentiate into chondrocytes in the presence of insulin (Cell Diff. Dev. 30, 109 (1990); available from the Cell Bank of The Institute of Physical and Chemical Research) were also cultured by the same procedure in the presence of 10 μg/ml of insulin and 0.1 to 10 ng/ml of hTGF-β1 for 7 days post confluent to examine the stainability with Alcian blue (pH 1.0).

Test [4] deals with CL-1 cells. The experiment in a line: Uptake of 35S-labeled sulfuric acid into CL-1 cell layers. Format: cell-based, mouse. The method, then: CL-1 cells were plated on a polystyrene 96-well plate (Wallac) at a cell density of 2000 cells/well, and incubated in (α-MEM (GIBCO) containing 10% inactivated serum (Intergen), 100 U/ml penicillin and 100 μg/ml streptomycin in an incubator at 37° C., 5% CO2, with the medium being changed with a fresh medium 3 times a week to reach confluency. After confluency was confirmed with a microscope, the medium was changed with a fresh medium containing human TGF-β1 (AUSTRAL BIOLOGICALS) at a concentration of 0.1, 1.0 or 10 ng/ml and incubation was continued. After 24 hours, ^35S-labeled sulfuric acid (Amersham) was added at 0.5 μCi/well and incubation was continued for further 24 hours. Then, the medium was changed with 200 μl of 0.1 M phosphate buffer (pH 7.4) containing 5% paraformaldehyde (Wako Pure Chemical Industries) and 0.4% cetylpyridinium chloride (Wako Pure Chemical Industries) for fixation at room temperature for 2 hours. After CL-1 cell layers were washed once with the same buffer, 100 μl of a liquid scintillator (Optiphase supermix, available from Wallac) was added to each well followed by stirring, so that the radioactivity of ^35S-labeled sulfuric acid incorporated into CL-1 cell layers was determined by a liquid scintillation counter (Microbeta 1450, available from Wallac).

Test [5] concerns CL-1 cells. The experiment in a line: Alizarin red S staining of CL-1 nodules. Format: cell-based, mouse. The conditions noted are these: 10 mM in medium, cultured one month. The method, then:
CL-1 cells were similarly cultured in the medium supplemented with 10 mM β-glycerophosphate. Then, they were fixed in 4% paraformaldehyde (pH 7.4), washed with distilled water, then stained with a 1% Alizarin red S (Merck) solution for 5 minutes, washed with water and then observed with naked eyes and with an optical microscope.

Test [6] has as its system CL-1 cells. The test is described as follows: Cartilage destruction: Alcian blue stainability of hTGF-β1-enhanced CL-1 cells. Format: cell-based, mouse. The method, then:
This example relates to an examination about whether or not cartilage-like nodules formed by culturing CL-1 cells in the presence of hTGF-β1 are destroyed by inflammatory cytokines IL-1 or TNF-α. CL-1 cells were cultured on a 24-well plate (CORNING) at a cell density of 2500 cells/cm^2 to confluent, after which hTGF-β1 was daily added to the medium for 5 days at a final concentration of 1.0 ng/ml. Then, mouse interleukin 1α (mIL-1α; R & D systems) and mouse tumor necrosis factor-a (mTNF-α; R & D systems) were daily added to the medium for 5 days at a final concentration of 0.1, 1.0 or 10 ng/ml, and the cells were cultured. Then, the stainability of CL-1 cells with Alcian blue (pH 1.0) was determined as described hereinbefore. As a result, the stainability with Alcian blue (pH 1.0) decreased in the presence of mIL-1α at 0.1 ng/ml or more (see FIG. 15) and mTNF-α at 1.0 ng/ml or more (see FIG. 16).

`C=C1/C(=C\C=C2/CCC[C@]3(C)[C@@H]([C@H](C)CCCC(C)(C)O)CC[C@@H]23)C[C@@H](O)C[C@@H]1O` [1,25-dihydroxyvitamin D3]: the “intracellular accumulation of Oil red O-positive lipid droplets” value in the test with CL-1 cells [1] (10^−3 M at each medium change, 3 weeks) is given as “remarkably inhibits”. Moreover, the “amount of Ca deposition” value in the test on CL-1 cells [2] is reported as “significantly inhibited”.

For “hTGF-β1: human transforming growth factor-β1 (AUSTRAL Biologicals), known to have cartilage-inducing ability”, the “stainability with Alcian blue (pH 1.0)” value in the test with CL-1 cells [3] (0.1, 1.0 or 10 ng/ml added at each medium change, 3 weeks post confluent, absorbance at 620 nm) was “increased dose-dependently”. In the test with CL-1 cells [3] (3 weeks post confluent), the “Alcian blue (pH 1.0)-positive nodules” value is “clearly increased”. In addition, the “stainability of ATDC-5 cells with Alcian blue (pH 1.0)” value in the test with ATDC-5 cells was “dose-dependently decreased”. Also, the “increase of the uptake of 35S-labeled sulfuric acid” value in the test with CL-1 cells [4] (0.1, 1.0 or 10 ng/ml, FIG. 21) is reported as “about double”. The “concentration with statistically significant increase of the uptake of 35S-labeled sulfuric acid” value in the test on CL-1 cells [4] (vs control containing the medium alone, 48 h after addition) is not below 0.1 ng/mL.

For “hIGF-I: human insulin-like growth factor-I (CHEMICON INTERNATIONAL)”, the “stainability with Alcian blue (pH 1.0)” value with CL-1 cells [3] (100 ng/ml, similar test, 3 weeks) was “increase”. For the same molecule, the “Alcian blue (pH 1.0)-positive nodules” value in the test on CL-1 cells [3] (3 weeks post confluent) is on record as “clearly increased”. In the test with CL-1 cells [1] (compared with the medium alone), the “accumulation of Oil red O-positive lipid droplets in CL-1 cells” value is given as “promoted”.

For the molecule `O=P(O)(O)OC(CO)CO` [β-glycerophosphate], in the test with CL-1 cells [5], the “Alizarin red S staining of nodules” value is “turned positive”.

B1: mIL-1α: mouse interleukin 1α (R & D systems), inflammatory cytokine (protein, UniProt P01582 115-270, looked up)
Interleukin-1 alpha: SAPYTYQSDLRYKLMKLVRQKFVMNDSLNQTIYQDVDKHYLSTTWLNDLQQEVKFDMYAYSSGGDDSKYPVTLKISDSQLFVSAQGEDQPVLLKELPETPKLITGSETDLIFFWKSINSKNYFTSAAYPELFIATKEQSRVHLARGLPSMTDFQIS
Take B1: the “destruction of cartilage-like tissues formed by CL-1 cells in the presence of human TGF-β1” value with CL-1 cells [6] is recorded as “destroyed”. Also, the “concentration at which stainability with Alcian blue (pH 1.0) decreased” value in the test with CL-1 cells [6] (daily added for 5 days after 5 days of hTGF-β1 1.0 ng/ml) is recorded as not below 0.1 ng/ml.
